Results: patent publication US20230121313A1 (priority 2019, published 2023)

Experiments:
[1] = Pharmacokinetics of esketamine nasal spray, data assembled from 14 Phase 1 studies (Example 10); settings: human, plasma, inhaled or intranasal
Description: The data herein was assembled from 14 Phase 1 studies; each Phase 1 study was performed similarly to the study outlined in Example 9 in which the PK of esketamine was assessed.

[2] = system: subjects with MDD at imminent risk for suicide; experiment: SIBAT Clinical Global Judgment of Suicide Risk, Study […]2001; type: in vivo, human; settings: 84 mg
Text: • a. Changes from baseline to Day 2 and Day 25 for the MADRS total score • b. Changes from baseline to Day 1 4-hours postdose, Day 2 and Day 25 for the MADRS Suicide Item • c. Changes from baseline to Day 1 4-hours postdose, Day 2, and Day 25 for the clinical global judgment of suicide risk from the Suicide Ideation and Behavior Assessment Tool (SIBAT) • d. Sustained response (Onset of Clinical Response) defined as at least 50% reduction from baseline in MADRS total score with onset on Day 1 that is maintained through the end of the double-blind phase (Day 25) • e. Changes from baseline to Day 1 4-hours postdose, Day 2, and Day 25 for the Beck Scale for Suicidal Ideation (BSS) • f. Changes from baseline to Day 1 4-hours postdose and Day 25 for the Beck Hopelessness Scale
The clinical global judgment of suicide risk (Module 8) summarizes clinician overall judgment of suicide risk as derived from information gathered from the full SIBAT tool. It operates like numerous other CGI-severity scales that have been used in other psychiatric studies. Change in the clinical global judgment of suicide risk is designed to directly identify clinical meaningful changes in suicidal ideation and to permit classification of suicide risk.
The analysis of the change in SIBAT score was based on an ANCOVA model on ranks of change in SIBAT with treatment, antidepressant therapy, and analysis center as factors, and baseline value (unranked) as a covariate. There was a significant difference (two-sided […]) between the two treatment groups when comparing the mean rank of change from baseline at Day 1: 4-hours postdose in favor of esketamine 84 mg See, Table 58. See, FIG. 39. […] This difference was not evident at the Day 25 DB endpoint. See, FIG. 40, which is based on LOCF data and analyzed using Cochran-Mantel-Haenszel test controlling for analysis center and antidepressant therapy.

subjects with TRD = settings: human, in vivo, other: intranasal
Description: Transient blood pressure increases peaked for the esketamine group at approximately 40 minutes post dose and returned closer to predose levels by 1.5 hours post dose.

[3] = system: patients with treatment-resistant depression (TRD); experiment: GAD-7, phase 2 dose-response study in TRD; type: in vivo, human
Description: Overall illness severity was assessed on the Clinical Global Impression of Severity (CGI-S) scale (Guy, “ECDEU Assessment Manual for Psychopharmacology-Revised (DHEW Publ No ADM 76-338)”, Rockville, Md.: U.S. Department of Health, Education, and Welfare, Public Health Service, Alcohol, Drug Abuse, and Mental Health Administration, NIMH Psychopharmacology Research Branch, Division of Extramural Research Programs; 1976, pp 218-222). Participants assessed their severity of anxiety on the Generalized Anxiety Disorder 7-item (GADS-7) Scale (See, Tables 157 and 158). See, Spitzer, “A brief measure for assessing generalized anxiety disorder—the GAD-7”, Arch. Intern. Med., 2006, 166(10):1092-1097.

[4] = system: elderly subjects with TRD; settings: human, in vivo, other: intranasal
Description: The Clinician Administered Dissociative States Scale (CADSS) was measured prior to the start of each dose, at 40 minutes, and 1.5 hours postdose.

CN[C@]1(c2ccccc2Cl)CCCCC1=O [esketamine, (S)-2-(2-chlorophenyl)-2-(methylamino)cyclohexanone]
AUC(0-t) ([1]; 28 mg): 128 to 183 ng·h/mL
Cmax ([1]; 28 mg): 49.7 to 70.5 ng/mL
half-life ([1]; 28 mg, Terminal t1/2, young adult subjects, single dose nasal spray 28 mg, range across studies): 435 to 990 min
Tmax ([1]; 28 mg, Tmax, young adult subjects, single dose nasal spray 28 mg, range of median values): 19.8 to 40.2 min
Tmax ([1]; 28 mg, tmax typically observed after the first nasal spray, 28 mg): 20 to 40 min
AUC(0-t) ([1]; 56 mg): 216 to 317 ng·h/mL
Cmax ([1]; 56 mg): 71.8 to 117 ng/mL
half-life ([1]; 56 mg, Terminal t1/2, young adult subjects, single dose nasal spray 56 mg, range across studies): 408 to 590 min
Tmax ([1]; 56 mg, Tmax, young adult subjects, single dose nasal spray 56 mg, range of median values): 30 to 46.2 min
Tmax ([1]; 56 mg, tmax typically observed after the first nasal spray, 56 mg): 30 to 45 min
AUC(0-t) ([1]; 84 mg): 310 to 489 ng·h/mL
Cmax ([1]; 84 mg): 95 to 164 ng/mL
half-life ([1]; 84 mg, Terminal t1/2, young adult subjects, single dose nasal spray 84 mg, range across studies): 396 to 720 min
Tmax ([1]; 84 mg, Tmax, young adult subjects, single dose nasal spray 84 mg, range of median values): 31.8 to 49.8 min
Tmax ([1]; 84 mg, tmax typically observed after the first nasal spray, 84 mg): 30 to 50 min
half-life ([1]; Mean terminal t1/2, range, nasal administration): 420 to 720 min
half-life ([1]; Median terminal t1/2, nasal administration): 642 min
SIBAT Clinical Global Judgment of Suicide Risk, change from baseline, median (range) ([2]; Day 1 (DB): 4 H, LOCF, N 33): 0.0 (−6; 1)
SIBAT Clinical Global Judgment of Suicide Risk, median (range) ([2]; Day 1 (DB): 4 H, LOCF, N 33): 5.0 (0; 6)
SIBAT Clinical Global Judgment of Suicide Risk, change from baseline, median (range) ([2]; Day 2(DB) LOCF, N 35): −1.0 (−6; 1)
SIBAT Clinical Global Judgment of Suicide Risk, median (range) ([2]; Day 2(DB) LOCF, N 35): 5.0 (0; 6)
Subjects with a SIBAT score of 5 or 6 ([2]; […]2001, Day 1: 4-hour postdose): 63.6%
Blood pressure returned closer to predose levels by (post dose) (subjects with TRD): ≤ 1.5 h
Transient blood pressure increases: time of peak post dose (subjects with TRD): approximately 40 minutes
GAD-7 LS mean difference from placebo (SE) ([3]; Period 1, 28 mg): −0.21 (1.461)
GAD-7 change from baseline to end point, LS mean (SE) ([3]; Period 1, 28 mg): −1.5 (1.34)
GAD-7 LS mean difference from placebo (SE) ([3]; Period 1, 56 mg): −1.40 (1.478)
GAD-7 change from baseline to end point, LS mean (SE) ([3]; Period 1, 56 mg): −3.1 (1.34)
GAD-7 LS mean difference from placebo (SE) ([3]; Period 1, 84 mg): −3.44 (1.414)
GAD-7 change from baseline to end point, LS mean (SE) ([3]; Period 1, 84 mg): −5.1 (1.30)
GAD-7 LS mean difference from placebo (SE) ([3]; Period 2, 28 mg): −2.02 (1.089)
GAD-7 change from baseline to end point, LS mean (SE) ([3]; Period 2, 28 mg): −1.6 (0.87)
GAD-7 LS mean difference from placebo (SE) ([3]; Period 2, 56 mg): 0.60 (1.033)
GAD-7 change from baseline to end point, LS mean (SE) ([3]; Period 2, 56 mg): 1.0 (0.98)
GAD-7 LS mean difference from placebo (SE) ([3]; Period 2, 84 mg): −1.25 (1.205)
GAD-7 change from baseline to end point, LS mean (SE) ([3]; Period 2, 84 mg): −0.9 (1.02)
CADSS dissociative and perceptual change symptoms resolved by (postdose) [4]: ≤ 1.5 h
